Results reported in patent US9040530B2, “1,2,4-triazine-6-carboxamide kinase inhibitors” (Portola Pharmaceuticals, Inc., priority 2012, dated 2015).

The compounds below were run against T1, full length active recombinant SYK enzyme (Homo sapiens, UniProt P43405) (assay: Inhibition of Syk tyrosine phosphorylation activity (LANCE TR-FRET kinase assay)). Conditions: 1 nM active SYK enzyme, 550 nM SYK-substrate, 100 μM ATP, 1 hour at room temperature.
T1 construct: full length active recombinant SYK enzyme (Millipore, Calif.); purchased Millipore
Format: biochemical

SMILES	IC50 [nM]
CC[C@@H](Nc1nnc(C(N)=O)c(Nc2ccc(Cl)c(C)c2)n1)C(N)=O [Example 221, (R)-3-((1-amino-1-oxobutan-2-yl)amino)-5-((4-chloro-3-methylphenyl)amino)-1,2,4-triazine-6-carboxamide]	10 to 100
CC[C@@H](Nc1nnc(C(N)=O)c(Nc2ccc(C)c(Cl)c2)n1)C(N)=O [Example 222, (R)-3-((1-amino-1-oxobutan-2-yl)amino)-5-((3-chloro-4-methylphenyl)amino)-1,2,4-triazine-6-carboxamide]	10 to 100
NC(=O)c1nnc(N[C@@H]2CCOC[C@@H]2N)nc1Nc1ccc2c(c1)CCC2 [Example 223, 3-(((3R,4R)-3-aminotetrahydro-2H-pyran-4-yl)amino)-5-((2,3-dihydro-1H-inden-5-yl)amino)-1,2,4-triazine-6-carboxamide]	1 to 10
Cc1cc(Nc2nc(N[C@@H]3CCOC[C@@H]3N)nnc2C(N)=O)ccc1Cl [Example 224, 3-(((3R,4R)-3-aminotetrahydro-2H-pyran-4-yl)amino)-5-((4-chloro-3-methylphenyl)amino)-1,2,4-triazine-6-carboxamide]	1 to 10
Cc1ccc(Nc2nc(N[C@@H]3CCOC[C@@H]3N)nnc2C(N)=O)cc1Cl [Example 225, 3-(((3R,4R)-3-aminotetrahydro-2H-pyran-4-yl)amino)-5-((3-chloro-4-methylphenyl)amino)-1,2,4-triazine-6-carboxamide]	1 to 10
Cc1ccc(Nc2nc(N[C@H](CC3CC3)C(N)=O)nnc2C(N)=O)cc1 [Example 226, (R)-3-((1-amino-3-cyclopropyl-1-oxopropan-2-yl)amino)-5-(p-tolylamino)-1,2,4-triazine-6-carboxamide]	10 to 100
CC[C@@H](Nc1nnc(C(N)=O)c(Nc2ccc3c(c2)COCC3)n1)C(N)=O [Example 227, (R)-3-((1-amino-1-oxobutan-2-yl)amino)-5-(isochroman-7-ylamino)-1,2,4-triazine-6-carboxamide]	1 to 10
NC(=O)c1nnc(N[C@@H]2CCCC(F)(F)[C@@H]2N)nc1Nc1ccc2c(c1)COCC2 [Example 228, 3-(((1R,2R)-2-amino-3,3-difluorocyclohexyl)amino)-5-(isochroman-7-ylamino)-1,2,4-triazine-6-carboxamide]	1 to 10
COc1cc(Nc2nc(N[C@@H]3CCCC(F)(F)[C@@H]3N)nnc2C(N)=O)ccc1C [Example 229, 3-(((1R,2R)-2-amino-3,3-difluorocyclohexyl)amino)-5-((3-methoxy-4-methylphenyl)amino)-1,2,4-triazine-6-carboxamide]	10 to 100
COc1cc(Nc2nc(N[C@@H]3CCCC(F)(F)[C@@H]3N)nnc2C(N)=O)ccc1Cl [Example 230, 3-(((1R,2R)-2-amino-3,3-difluorocyclohexyl)amino)-5-((4-chloro-3-methoxyphenyl)amino)-1,2,4-triazine-6-carboxamide]	100 to 1000
CC[C@@H](Nc1nnc(C(N)=O)c(Nc2ccc(C)c(OC)c2)n1)C(N)=O [Example 231, (R)-3-((1-amino-1-oxobutan-2-yl)amino)-5-((3-methoxy-4-methylphenyl)amino)-1,2,4-triazine-6-carboxamide]	10 to 100
CC[C@@H](Nc1nnc(C(N)=O)c(Nc2ccc(Cl)c(OC)c2)n1)C(N)=O [Example 232, (R)-3-((1-amino-1-oxobutan-2-yl)amino)-5-((4-chloro-3-methoxyphenyl)amino)-1,2,4-triazine-6-carboxamide]	10 to 100
Cc1ccc(Nc2nc(N[C@@H]3CCCC(F)(F)[C@@H]3N)nnc2C(N)=O)cc1C#N [Example 233, 3-(((1R,2R)-2-amino-3,3-difluorocyclohexyl)amino)-5-((3-cyano-4-methylphenyl)amino)-1,2,4-triazine-6-carboxamide]	100 to 1000
CC[C@@H](Nc1nnc(C(N)=O)c(Nc2ccc(C)c(C#N)c2)n1)C(N)=O [Example 234, (R)-3-((1-amino-1-oxobutan-2-yl)amino)-5-((3-cyano-4-methylphenyl)amino)-1,2,4-triazine-6-carboxamide]	100 to 1000
CC[C@@H](Nc1nnc(C(N)=O)c(Nc2ccc(Cl)c(Cl)c2)n1)C(N)=O [Example 235, (R)-3-((1-amino-1-oxobutan-2-yl)amino)-5-((3,4-dichlorophenyl)amino)-1,2,4-triazine-6-carboxamide]	10 to 100
NC(=O)c1nnc(N[C@@H]2CCCC(F)(F)[C@@H]2N)nc1Nc1ccc(Cl)c(Cl)c1 [Example 236, 3-(((1R,2R)-2-amino-3,3-difluorocyclohexyl)amino)-5-((3,4-dichlorophenyl)amino)-1,2,4-triazine-6-carboxamide]	100 to 1000
NC(=O)c1nnc(N[C@@H]2CCCC(F)(F)[C@@H]2N)nc1Nc1ccc2c(c1)CCCC2 [Example 237, 3-(((1R,2R)-2-amino-3,3-difluorocyclohexyl)amino)-5-((5,6,7,8-tetrahydronaphthalen-2-yl)amino)-1,2,4-triazine-6-carboxamide]	10 to 100

SMILES	IC50 [nM]
NC(=O)c1nnc(N[C@@H]2CCCC(F)(F)[C@@H]2N)nc1Nc1cccc(C(F)(F)F)c1 [Example 238, 3-(((1R,2R)-2-amino-3,3-difluorocyclohexyl)amino)-5-((3-(trifluoromethyl)phenyl)amino)-1,2,4-triazine-6-carboxamide]	> 1000
NC(=O)c1nnc(N[C@@H]2CCCC(F)(F)[C@@H]2N)nc1Nc1ccc(C(F)(F)F)cc1 [Example 239, 3-(((1R,2R)-2-amino-3,3-difluorocyclohexyl)amino)-5-((4-(trifluoromethyl)phenyl)amino)-1,2,4-triazine-6-carboxamide]	10 to 100
CC[C@@H](Nc1nnc(C(N)=O)c(Nc2ccc(Cl)c(C(F)(F)F)c2)n1)C(N)=O [Example 240, (R)-3-((1-amino-1-oxobutan-2-yl)amino)-5-((4-chloro-3-(trifluoromethyl)phenyl)amino)-1,2,4-triazine-6-carboxamide]	100 to 1000
CC[C@@H](Nc1nnc(C(N)=O)c(Nc2ccc(C(F)(F)F)c(Cl)c2)n1)C(N)=O [Example 241, (R)-3-((1-amino-1-oxobutan-2-yl)amino)-5-((3-chloro-4-(trifluoromethyl)phenyl)amino)-1,2,4-triazine-6-carboxamide]	10 to 100
NC(=O)c1nnc(N[C@@H]2CCOC[C@@H]2N)nc1Nc1ccc(C(F)(F)F)cc1 [Example 242, 3-(((3R,4R)-3-aminotetrahydro-2H-pyran-4-yl)amino)-5-((4-(trifluoromethyl)phenyl)amino)-1,2,4-triazine-6-carboxamide]	10 to 100
NC(=O)c1nnc(N[C@@H]2CCOC[C@@H]2N)nc1Nc1ccc(Cl)cc1 [Example 243, 3-(((3R,4R)-3-aminotetrahydro-2H-pyran-4-yl)amino)-5-((4-chlorophenyl)amino)-1,2,4-triazine-6-carboxamide]	10 to 100
NC(=O)c1nnc(N[C@@H]2CCOC[C@@H]2N)nc1Nc1ccc(Cl)c(Cl)c1 [Example 244, 3-(((3R,4R)-3-aminotetrahydro-2H-pyran-4-yl)amino)-5-((3,4-dichlorophenyl)amino)-1,2,4-triazine-6-carboxamide]	10 to 100
NC(=O)c1nnc(N[C@@H]2CCCC(F)(F)[C@@H]2N)nc1Nc1ccc2scnc2c1 [Example 245, 3-(((1R,2R)-2-amino-3,3-difluorocyclohexyl)amino)-5-(benzo[d]thiazol-5-ylamino)-1,2,4-triazine-6-carboxamide]	10 to 100
CC[C@@H](Nc1nnc(C(N)=O)c(Nc2ccc3scnc3c2)n1)C(N)=O [Example 246, (R)-3-((1-amino-1-oxobutan-2-yl)amino)-5-(benzo[d]thiazol-5-ylamino)-1,2,4-triazine-6-carboxamide]	10 to 100
NC(=O)c1nnc(N[C@@H]2CCOC[C@@H]2N)nc1Nc1ccc2scnc2c1 [Example 247, 3-(((3R,4R)-3-aminotetrahydro-2H-pyran-4-yl)amino)-5-(benzo[d]thiazol-5-ylamino)-1,2,4-triazine-6-carboxamide]	10 to 100
CC(C)C[C@@H](Nc1nnc(C(N)=O)c(Nc2ccc(Cl)cc2)n1)C(N)=O [Example 248, (R)-3-((1-amino-4-methyl-1-oxopentan-2-yl)amino)-5-((4-chlorophenyl)amino)-1,2,4-triazine-6-carboxamide]	10 to 100
NC(=O)c1nnc(N[C@H](CC2CC2)C(N)=O)nc1Nc1ccc(Cl)cc1 [Example 249, (R)-3-((1-amino-3-cyclopropyl-1-oxopropan-2-yl)amino)-5-((4-chlorophenyl)amino)-1,2,4-triazine-6-carboxamide]	10 to 100
NC(=O)c1nnc(N[C@@H]2CCCC(F)(F)[C@@H]2N)nc1Nc1ccc(Cl)cc1 [Example 250, 3-(((1R,2R)-2-amino-3,3-difluorocyclohexyl)amino)-5-((4-chlorophenyl)amino)-1,2,4-triazine-6-carboxamide]	100 to 1000
NC(=O)c1nnc(N[C@@H]2CCOC[C@@H]2N)nc1Nc1cccc(C(F)(F)F)c1 [Example 251, 3-(((3R,4R)-3-aminotetrahydro-2H-pyran-4-yl)amino)-5-((3-(trifluoromethyl)phenyl)amino)-1,2,4-triazine-6-carboxamide]	10 to 100
NC(=O)c1nnc(N[C@@H]2CCOC[C@@H]2N)nc1Nc1cccc(-c2ncco2)c1 [Example 252, 3-(((3R,4R)-3-aminotetrahydro-2H-pyran-4-yl)amino)-5-((3-(oxazol-2-yl)phenyl)amino)-1,2,4-triazine-6-carboxamide]	1 to 10
NC(=O)c1nnc(N[C@@H]2CCOC[C@@H]2N)nc1Nc1ccc(-c2ncco2)cc1 [Example 253, 3-(((3R,4R)-3-aminotetrahydro-2H-pyran-4-yl)amino)-5-((4-(oxazol-2-yl)phenyl)amino)-1,2,4-triazine-6-carboxamide]	10 to 100
NC(=O)c1nnc(N[C@H](CC2CC2)C(N)=O)nc1Nc1ccc(Cl)c(Cl)c1 [Example 254, (R)-3-((1-amino-3-cyclopropyl-1-oxopropan-2-yl)amino)-5-((3,4-dichlorophenyl)amino)-1,2,4-triazine-6-carboxamide]	10 to 100
